# Experimental data reported in patent US9763942B2, “Serine/threonine kinase inhibitors” (Array BioPharma Inc., priority 2013, dated 2017).
# Biological target: T1, human ERK-2 (Mitogen Activated Kinase 1) (Homo sapiens, UniProt P28482)
# T1 construct: n-terminal 6-His fusion protein in E. coli and corresponding to aa 8-360; 6-His (N); made in house; host or cells: E. coli
# Assay: ERK-2 Enzymatic Assay
# Type: biochemical
# Details: ERK-2 enzymatic assay; read-out: IC50
# Text: Table 1 contains representative data for Examples disclosed herein.
# T1 sequence (P28482 8-360): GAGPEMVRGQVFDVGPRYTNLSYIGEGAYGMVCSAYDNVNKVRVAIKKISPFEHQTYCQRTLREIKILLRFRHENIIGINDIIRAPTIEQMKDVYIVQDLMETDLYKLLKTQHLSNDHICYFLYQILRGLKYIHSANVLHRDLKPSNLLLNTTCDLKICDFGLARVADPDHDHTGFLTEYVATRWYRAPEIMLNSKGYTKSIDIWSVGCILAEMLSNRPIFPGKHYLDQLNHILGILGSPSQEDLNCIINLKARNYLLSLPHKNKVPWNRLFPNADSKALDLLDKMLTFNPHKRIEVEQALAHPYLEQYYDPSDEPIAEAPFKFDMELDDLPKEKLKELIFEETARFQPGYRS
row,Structure (SMILES),IC50
1,"COc1ccc(Cn2nnc3cc(-c4ccnc(Nc5cnn(C)c5)n4)ccc32)cc1F [Example 2, 4-(1-(3-fluoro-4-methoxybenzyl)-1H-benzo[d][1,2,3]triazol-5-yl)-N-(1-methyl-1H-pyrazol-4-yl)pyrimidin-2-amine]",< 100 nM
2,"COc1ccc(Cn2nnc3cc(-c4ccnc(Nc5cnn(C)n5)n4)ccc32)cc1F [Example 9, 4-(1-(3-fluoro-4-methoxybenzyl)-1H-benzo[d][1,2,3]triazol-5-yl)-N-(2-methyl-2H-1,2,3-triazol-4-yl)pyrimidin-2-amine]",< 100 nM
3,"COc1ccc(Cn2nnc3cc(-c4ccnc(Nc5nnc(C)s5)n4)ccc32)cc1F [Example 11, N-(4-(1-(3-fluoro-4-methoxybenzyl)-1H-benzol[d][1,2,3]triazol-5-yl)pyrimidin-2-yl)-5-methyl-1,3,4-thiadiazol-2-amine]",< 100 nM
4,COc1ccc(Cn2nnc3cc(-c4ccnc(NCC(C)(C)CO)n4)ccc32)cc1F [Example 16],< 100 nM
5,"COc1ccc(Cn2nnc3cc(-c4ccnc(NCC5COC5)n4)ccc32)cc1F [Example 17, 4-(1-(3-fluoro-4-methoxybenzyl)-1H-benzo[d][1,2,3]triazol-5-yl)-N-(oxetan-3-ylrnethyl)pyrimidin-2-amine]",< 100 nM
6,"COc1ccc(Cn2nnc3cc(-c4ccnc(NCC(C)(C)O)n4)ccc32)cc1F [Example 18, 1-((4-(1-(3-fluoro-4-methoxybenzyl)-1H-benzo[d][1,2,3]triazol-5-yl)pyrimidin-2-yl)amino)-2-methylpropan-2-ol]",< 100 nM
7,"COc1ccc(Cn2nnc3cc(-c4ccnc(N[C@@H](C)CO)n4)ccc32)cc1F [Example 19, (S)-2-((4-(1-(3-fluoro-4-methoxybenzyl)-1H-benzo[d][1,2,3]triazol-5-yl)pyrimidin-2-yl)amino)propan-1-ol]",< 100 nM
8,"COc1ccc(Cn2nnc3cc(-c4ccnc(NC5(C)COC5)n4)ccc32)cc1F [Example 21, 4-(1-(3-fluoro-4-methoxybenzyl)-1H-benzo[d][1,2,3]triazol-5-yl)-N-(3-methyloxetan-3-yl)pyrimidin-2-amine]",< 100 nM
9,"COc1ccc(Cn2nnc3cc(-c4ccnc(Nc5cc(C6CC6)nn5C)n4)ccc32)cc1F [Example 25, N-(3-cyclopropyl-1-methyl-1H-pyrazol-5-yl)-4-(1-(3-fluoro-4-methoxybenzyl)-1H-benzoyl[d][1,2,3]triazol-5-yl)pyrimidin-2-amine]",< 100 nM
10,"COc1ccc(Cn2nnc3cc(-c4ccnc(Nc5nnn(C)n5)n4)ccc32)cc1F [Example 26, 4-(1-(3-fluoro-4-methoxybenzyl)-1H-benzoyl[d][1,2,3]triazol-5-yl)-N-(2-methyl-2H-tetrazol-5-yl)pyrimidin-2-amine]",< 100 nM
11,CCC(C)Cn1nnc2cc(-c3ccnc(Nc4ccnn4C)n3)ccc21 (stereo not shown) [Example 27],< 100 nM
12,"Cn1nccc1Nc1nccc(-c2ccc3c(c2)nnn3CC2CCCC2)n1 [Example 29, 4-(1-(cyclopentylmethyl)-1H-benzo[d][1,2,3]triazol-5-yl)-N-(1-methyl-1H-pyrazol-5-yl)pyrimidin-2-amine]",< 100 nM
13,"Cn1nccc1Nc1nccc(-c2ccc3c(c2)nnn3CC(C)(F)F)n1 [Example 31, 4-(1-(2,2-difluoropropyl)-1H-benzo[d][1,2,3]triazol-5-yl)-N-(1-methyl-1H-pyrazol-5-yl)pyrimidin-2-amine]",< 100 nM
14,"Cn1ccc(Cn2nnc3cc(-c4ccnc(Nc5ccnn5C)n4)ccc32)n1 [Example 32, 4-(1-((1-methyl-1H-pyrazol-3-yl)methyl)-1H-benzo[d][1,2,3]triazol-5-yl)-N-(1-methyl-1H-pyrazol-5-yl)pyrimidin-2-amine]",< 100 nM
15,"Cn1nccc1Nc1nccc(-c2ccc3c(c2)nnn3CC2CC(F)(F)C2)n1 [Example 34, 4-(1-((3,3-difluorocyclobutyl)methyl)-1H-benzo[d][1,2,3]triazol-5-yl)-N-(1-methyl-1H-pyrazol-5-yl)pyrimidin-2-amine]",< 100 nM
16,"Cn1nccc1Cn1nnc2cc(-c3ccnc(Nc4ccnn4C)n3)ccc21 [Example 39, N-(1-methyl-1H-pyrazol-5-yl)-4-(1-((1-methyl-1H-pyrazol-5-yl)methyl)-1H-benzo[d][1,2,3]triazol-5-yl)pyrimidin-2-amine]",< 100 nM
17,"Cn1nccc1Nc1nccc(-c2ccc3c(c2)nnn3CCCF)n1 [Example 40, 4-(1-(3-fluoropropyl)-1H-benzo[d][1,2,3]triazol-5-yl)-N-(1-methyl-1H-pyrazol-5-yl)pyrimidin-2-amine]",< 100 nM
18,"COCCCn1nnc2cc(-c3ccnc(Nc4ccnn4C)n3)ccc21 [Example 42, 4-(1-(3-methoxypropyl)-1H-benzo[d][1,2,3]triazol-5-yl)-N-(1-methyl-1H-pyrazol-5-yl)pyrimidin-2-amine]",< 100 nM
19,"COC(C)(C)Cn1nnc2cc(-c3ccnc(Nc4ccnn4C)n3)ccc21 [Example 44, 4-(1-(2-methoxy-2-methylpropyl)-1H-benzo[d][1,2,3]triazol-5-yl)-N-(1-methyl-1H-pyrazol-5-yl)pyrimidin-2-amine]",< 100 nM

# The remaining lines, values ahead:
row,IC50,Structure (SMILES)
1,< 100 nM,"Cn1nccc1Nc1nccc(-c2ccc3c(c2)nnn3CCc2ccc(Cl)cc2)n1 [Example 3, 4-(1-(4-chlorophenethyl)-1H-benzo[d][1,2,3]triazol-5-yl)-N-(1-methyl-1H-pyrazol-5-yl)pyrimidin-2-amine]"
2,< 100 nM,"COc1ccc(Cn2nnc3cc(-c4ccnc(N[C@H]5CCOC[C@H]5F)n4)ccc32)cc1F [Example 7, 4-(1-(3-fluoro-4-methoxybenzyl)-1H-benzo[d][1,2,3]triazol-5-yl)-N-((3S,4S)-3-fluorotetrahydro-2H-pyran-4-yl)pyrimidin-2-amine]"
3,< 100 nM,"COc1ccc(Cn2nnc3cc(-c4ccnc(NC5COC5)n4)ccc32)cc1F [Example 10, 4-(1-(3-fluoro-4-methoxybenzyl)-1H-benzo[d][1,2,3]triazol-5-yl)-N-(oxetan-3-yl)pyrimidin-2-amine]"
4,< 100 nM,"COc1ccc(Cn2nnc3cc(-c4ccnc(NC5CCC5)n4)ccc32)cc1F [Example 12, N-cyclobutyl-4-(1-(3-fluoro-4-methoxybenzyl)-1H-benzo[d][1,2,3]triazol-5-yl)pyrimidin-2-amine]"
5,< 100 nM,"COc1ccc(Cn2nnc3cc(-c4ccnc(NC(C)C)n4)ccc32)cc1F [Example 13, 4-(1-(3-fIuoro-4-methoxybenzyl)-1H-benzo[d][1,2,3]triazol-5-yl)-N-isopropylpyrimidin-2-amine]"
6,< 100 nM,"COc1ccc(Cn2nnc3cc(-c4ccnc(NCC5CC5)n4)ccc32)cc1F [Example 14, N-(cyclopropylmethyl)-4-(1-(3-fluoro-4-methoxybenzyl)-1H-benzo[d][1,2,3]triazol-5-yl)pyrimidin-2-amine]"
7,< 100 nM,"COc1ccc(Cn2nnc3cc(-c4ccnc(NC5CC5)n4)ccc32)cc1F [Example 15, N-cyclopropyl-4-(1-(3-fluoro-4-methoxybenzyl)-1H-benzo[d][1,2,3]triazol-5-yl)pyrimidin-2-amine]"
8,< 100 nM,"COc1ccc(Cn2nnc3cc(-c4ccnc(NC[C@@H](O)CO)n4)ccc32)cc1F [Example 20, (R)-3-((4-(1-(3-fluoro-4-methoxybenzyl)-1H-benzo[d][1,2,3]triazol-5-yl)pyrimidin-2-yl)amino)propane-1,2-diol]"
9,< 100 nM,"COc1ccc(Cn2nnc3cc(-c4ccnc(NC(C)(C)CN5CCOCC5)n4)ccc32)cc1F [Example 23, 4-(1-(3-fluoro-4-methoxybenzyl)-1H-benzo[d][1,2,3]triazol-5-yl)-N-(2-methyl-1-morpholinopropan-2-yl)pyrimidin-2-amine]"
10,< 100 nM,"COc1ccc(Cn2nnc3cc(-c4ccnc(Nc5nnnn5C)n4)ccc32)cc1F [Example 24, 4-(1-(3-fluoro-4-methoxybenzyl)-1H-benzo[d][1,2,3]triazol-5-yl)-N-(1-methyl-1H-tetrazol-5-yl)pyrimidin-2-amine]"
11,< 100 nM,"CCC(CC)Cn1nnc2cc(-c3ccnc(Nc4ccnn4C)n3)ccc21 [Example 28, 4-(1-(2-ethylbutyl)-1H-benzo[d][1,2,3]triazol-5-yl)-N(1-methyl-1H-pyrazol-5-yl)pyrimidin-2-amine]"
12,< 100 nM,"COC(C)Cn1nnc2cc(-c3ccnc(Nc4ccnn4C)n3)ccc21 (stereo not shown) [Example 30, 4-(1-(2-methoxypropyl)-1H-benzo[d][1,2,3]triazol-5-yl)-N-(1-methyl-1H-pyrazol-5-yl)pyrimidin-2-amine]"
13,< 100 nM,"CN1CC(Cn2nnc3cc(-c4ccnc(Nc5ccnn5C)n4)ccc32)C1 [Example 36, N-(1-methyl-1H-pyrazol-5-yl)-4-(1-((1-methylazetidin-3-yl)methyl)-1H-benzo[d][1,2,3]triazol-5-yl)pyrimidin-2-amine]"
14,< 100 nM,"Cn1nccc1Nc1nccc(-c2ccc3c(c2)nnn3CC(F)F)n1 [Example 37, 4-(1-(2,2-difluoroethyl)-1H-benzo[d][1,2,3]triazol-5-yl)-N-(1-methyl-1H-pyrazol-5-yl)pyrimidin-2-amine]"
15,< 100 nM,"CC(C)Cn1nnc2cc(-c3ccnc(Nc4ccnn4C)n3)ccc21 [Example 38, 4-(1-isobutyl-1H-benzo[d][1,2,3]triazol-5-yl)-N-(1-methyl-1H-pyrazol-5-yl)pyrimidin-2-amine]"
16,< 100 nM,"CC(O)CCn1nnc2cc(-c3ccnc(Nc4ccnn4C)n3)ccc21 (stereo not shown) [Example 41, 4-(5-(2-((1-methyl-1H-pyrazol-5-yl)amino)pyrimidin-4-yl)-1H-benzo[d][1,2,3]triazol-1-yl)butan-2-ol]"
17,< 100 nM,"CCOCC1(Cn2nnc3cc(-c4ccnc(Nc5ccnn5C)n4)ccc32)CC1 [Example 45, 4-(1-((1-(ethoxymethyl)cyclopropyl)methyl)-1H-benzo[d][1,2,3]triazol-5-yl)-N-(1-methyl-1H-pyrazol-5-yl)pyrimidin-2-amine]"
18,< 100 nM,"COCC(C)(C)Cn1nnc2cc(-c3ccnc(Nc4ccnn4C)n3)ccc21 [Example 46, 4-(1-(3-methoxy-2,2-dimethylpropyl)-1H-benzo[d][1,2,3]triazol-5-yl)-N-(1-methyl-1H-pyrazol-5-yl)pyrimidin-2-amine]"
